From patent US7652037B2, “Methods of lowering lipid levels in a mammal” (City Of Hope, priority 2003, dated 2010)
Marks after values point to notes of the source that are not given here.

How the values were obtained:
STZ-Diabetic Rats = assay: Body weight and glycemia in STZ-diabetic and control rats (Example 1); format: in vivo, rat; settings: for Body Weight / HbA1c / Plasma Glucose: mean ± SD; for effect on plasma glucose and glycated hemoglobin / weight compared to the diabetic control rats: diabetic rats; for weight compared to the diabetic control rats: only LR-90 statistically significant
Protocol: Male Sprague-Dawley rats (about 175 to 200 g) were adapted for one week prior to treatment, then rendered diabetic by intra-peritoneal injection of STZ (65 mg/kg in citrate buffer, pH 4.5) after an overnight fast. Control (non-diabetic) animals were injected with the buffer only. Diabetes was confirmed by measuring the plasma glucose concentrations 7 days after Streptozotocin (STZ)-injection. Only animals with a plasma glucose concentration greater than 20 mmol were classified as diabetic and used in the study. These diabetic rats were divided randomly into an untreated diabetic control group and a diabetic treatment group. The treatment group received an LR compound at 50 mg/l in their drinking water throughout the duration of the study (32 weeks for LR-90; 30 weeks for LR-9 and LR-74). All animals were housed individually and were given free access to food and water.
Blood (from the tail vein) and urine samples were collected from rats for glycemic control analysis and albuminuria measurements. Glycemia was monitored every 8 weeks by measuring plasma glucose and glycated hemoglobin. Plasma or serum also was tested for total cholesterol and total triglycerides. Progression of renal dysfunction was assessed by measuring urinary albumin to creatinine ratio (UA/Cr) and serum or plasma creatinine. For measurement of urinary albumin and creatinine concentrations, rats were housed in metabolic cages for 24 hours and urine was collected in a collection beaker with several drops of toluene to inhibit microbial growth.
At the end of study, the rats were weighed and anaesthetized with isoflourane and blood was drawn by heart puncture and transferred into heparinized and non-heparinized vacutainer tubes on ice. These blood samples were later centifuged for plasma and serum collection respectively, and stored at −70° C. until the time of analysis. Rats were killed by over-anesthetization and cardiac puncture and the kidneys were removed immediately, weighed, decapsulated and rinsed in PBS buffer. Sections of the kidneys were stored in 10% NBF for subsequent microscopic examinations and immunohistochemistry. The tail of each individual rat was cut, removed and stored in 50 mL conical tubes at −70° C.
Statistical analyses of data presented in this example and the following examples were first analyzed by ANOVA and post-hoc comparisons between group means were analyzed using unpaired Student's t test. A p value of less than 0.05 was considered statistically significant. Data are presented as means±SD.

[1] = Inhibition of copper-catalyzed oxidation of ascorbic acid (Cu2+ chelating activity); settings: 500 nmol/L CuCl2, 500 μmol/L ascorbic acid, phosphate buffer pH 7.4, 60 minutes; read-out: IC50, concentration that inhibited the rate of AA oxidation by 50%
Protocol: In vitro measurement of the kinetics of inhibition of copper-catalyzed oxidation of ascorbic acid was performed according to the methods of Price et al., J. Biol. Chem. 276:48967-48972, 2001. Briefly, CuCl2 and various concentrations of inhibitor compounds were pre-incubated in chelex-treated 20 mmol/L phosphate buffer, pH 7.4, for 5 minutes. Ascorbic acid then was added (50 μL of 10 mmol/L in water) to initiate the reaction (1 mL total reaction volume). The final concentrations of CuCl2 and ascorbic acid in the reaction were 500 nmol/L and 500 μmol/L, respectively. Aliquots (135 μL) were removed at 0 and 60 minutes and transferred to autoinjector vials containing 15 μL of 10 mmol/l DTPA. Samples were analyzed by reversed phase HPLC on an XTerra™ RP18 column (250 mm×4.6 mm, 5 μm) with an XTerra™ RP18 5 μm guard column using a Waters® 2690 Separator Module equipped with auto-injector and Millenium® 32 software. Solvents and gradient were all used as described in Dillon et al., Life Sci. 72:1583-1594, 2003. The absorbance of ascorbic acid was measured at 244 nm and the peak area was obtained to estimate the percent of ascorbic acid remaining versus time. For each inhibitor compound, the concentration that inhibited the rate of AA oxidation by 50% (IC50), was calculated with respect to the control using Prism™ software.

Human LDL = assay: Cu++-mediated LDL oxidation, TBARS (Example 16); settings: 250 μM compound, followed for 5 hours; control lag phase about 2 hours
Protocol: Human LDL was isolated from plasma of healthy donors by single vertical spin centrifugation (see Chung et al., Methods Enzymol. 128:181-209, 1986) and used within 24-48 hours of preparation. LDL (50 μg/mL) was incubated at 37° C. in 50 mM chelex-treated phosphate buffer, pH 7.4, alone or in the presence of 5 μM CuCl2 or 5 μM CuCl2 plus various concentrations of the LR compounds. After 5 hours of incubation, aliquots from each reaction mixture were removed for measurement of thiobarbituric acid-reacting substances (TBARS) as described in Satoh, Clin. Chim. Acta 90:37-43, 1978. Briefly, 250 μL of 20% trichloroacetic acid was added to 500 μL of sample aliquot, followed by 750 μL of 1% […]. The samples then were vortexed and incubated in a boiling water bath for 10 minutes. Upon cooling, the samples were centrifuged for 5 minutes at 5000 rpm. Absorbance of the supernatant was taken at 532 nm, and expressed as MDA equivalents using 1,1,3,3-tetramethoxypropane as standards. For fatty acid oxidation studies, linoleic acid (5#mM) was incubated alone or in the presence of 1 mM LR compound in […] phosphate buffer, pH 7.4, for 7 days at 37° C. Aliquots from each reaction mixture were withdrawn periodically for measurement of TBARS as described above.
Results are shown in FIG. 23A, where values are provided as means±SD of two independent experiments (n=4 for each treatment). In separate experiments, the time course for the oxidative modification fo LDL by Cu^++ in the presence of 250 μM compound was followed for 5 hours and aliquots for each time interval were assayed for TBARS. Values in FIG. 23B are means±SD of two independent experiments (n=4 per treatment).

[2] = STZ-diabetic (D) rats, 50 mg/l in drinking water, 30 weeks
[3] = non-diabetic (ND) rats, 50 mg/l in drinking water, 30 weeks
[4] = STZ-diabetic (D) rats, LR-90 50 mg/l in drinking water, 32 weeks
[5] = non-diabetic (ND) rats, LR-90 50 mg/l in drinking water, 32 weeks

Row | Molecule | Body Weight (STZ-Diabetic Rats; [2]) [g] | HbA1c (STZ-Diabetic Rats; [2]) | Plasma Glucose (STZ-Diabetic Rats; [2]) [mmol/L] | effect on plasma glucose and glycated hemoglobin (STZ-Diabetic Rats; 50 mg/l in drinking water) | weight compared to the diabetic control rats (STZ-Diabetic Rats; 50 mg/l in drinking water) | Body Weight (STZ-Diabetic Rats; [3]) [g] | HbA1c (STZ-Diabetic Rats; [3]) [%] | Plasma Glucose (STZ-Diabetic Rats; [3]) [mmol/L] | IC50 [1] [µM] | time course of Cu++-mediated oxidation of LDL (Human LDL) | Body Weight (STZ-Diabetic Rats; [4]) | HbA1c (STZ-Diabetic Rats; [4]) [%] | Plasma Glucose (STZ-Diabetic Rats; [4]) [mmol/L] | Body Weight (STZ-Diabetic Rats; [5]) [g] | HbA1c (STZ-Diabetic Rats; [5]) [%] | Plasma Glucose (STZ-Diabetic Rats; [5]) [mmol/L]
1 | CC(C)(Oc1ccc(NC(=O)c2ccc3ccccc3c2)cc1)C(=O)O [LR-9, 4-(2-napthylcarboxamido) phenoxyisobutyric acid] | 288.0 ± 71.8 | 1.95 ± 0.22^b % | 27.1 ± 1.3 | did not affect | moderate increase in weight | 681.0 ± 9.3 | 0.90 ± 0.08 | 8.2 ± 0.9 | 200 | significantly inhibited the rate of oxidation after 2 hours | – | – | – | – | – | –
2 | CC(Oc1cccc2cccnc12)C(=O)O (stereo not drawn) [LR-74, 2-(8-quinolinoxy) propionic acid] | 314.7 ± 53.0 | 2.10 ± 0.30% | 26.9 ± 1.5 | did not affect | moderate increase in weight | 744.0 ± 51.8 | 0.87 ± 0.12 | 6.8 ± 0.8 | 50 | no observable propagation phase | – | – | – | – | – | –
3 | methylene bis(4,4′-(2-chlorophenylureidophenoxyisobutyric acid) [LR-90] | – | – | – | did not affect | moderate increase in weight | – | – | – | 275 | no observable propagation phase | 337.6 ± 26.6^c g | 3.3 ± 0.4 | 28.9 ± 3.4 | 723.0 ± 21.9 | 1.5 ± 0.1 | 6.8 ± 0.7
